What was measured:
Details in all cases: individual compound of natural origin
[1] = Determination of antioxidant activity (DPPH method); type: biochemical
Description: DPPH (1,1-diphenyl-2-picrylhydrazyl) is a chromogenic radical and thus, can be used to directly confirm the radical scavenging activity of the samples. The samples were dissolved in 4 ml of distilled water or solvent (methanol) and then, mixed well with 1 ml of 100 μM DPPH. Subsequently, the samples were incubated at room temperature for 30 minutes. The absorbance of the remaining DPPH was measured at 517 nm. As a blank of the present experiment, distilled water or solvent was used, and as a control, an experimental group composed only of DPPH in distilled water or solvent without the sample was used. Further, vitamin C was used as a positive control.

[2] = test system: NF-kB luciferase activity; experiment: Anti-inflammatory effect: inhibition test of NF-kB luciferase activity (TNF-alpha treated fibroblasts); type: cell-based, Human fibroblasts and mouse fibroblasts, NIH3T3; design: key: −: No effect; +: Weak effect; ++: Moderate effect; +++: Strong effect; ++++: Very strong effect
Description: The anti-inflammatory effect was determined by the inhibition test of NF-kB luciferase activity. Human fibroblasts and mouse fibroblasts, NIH3T3 were transfected with NF-kB reporter DNA using SuperFect to induce transformation. At 24 hrs after transformation, the samples were treated with TNF-alpha (10 ng/ml). After 16 hrs, the cells were collected, and luminescence measurements were made […] using a Luminometer (Berthold, Germany).

Human keratinocytes = experiment: Wound-healing effect: cell migration assay; type: cell-based; design: key: −: No effect; +: Weak effect; ++: Moderate effect; +++: Strong effect; ++++: Very strong effect
Description: The wound-healing effect was determined by a cell migration assay. Human keratinocytes were confluently cultured in keratinocyte-SFM media and then, treated with […] mitomycin C (Sigma Chemical) to inhibit cell growth for the measurement of cell migration. The confluent cell monolayer was scratched using a yellow pipette tip to create a cell-free region and then, the cell debris was washed with PBS. After the treatment, the samples were cultured in keratinocyte-SFM media for 48 hrs to observe the effect on cell migration (Cecile A et. al., Molecular Biology of the Cell, 2002; 13: 3845-3858).

[3] = Moisturizing effect: transepidermal water loss (Tewameter TM210); type: in vivo, human subjects; design: key: −: No effect; +: Weak effect; ++: Moderate effect; +++: Strong effect; ++++: Very strong effect
Description: The transepidermal water loss was measured using a Tewameter TM210 (Germany). The measurement was performed twice, before the treatment and at 2 weeks after the treatment, and the results were statistically compared. The measurement was performed in a temperature/humidity controlled room (no air flow, no light, at a temperature of 22° C. and relative humidity of 40%). The measurement was performed in the abdomen of thirty subjects.

## O=C(/C=C/c1ccc(O)c(O)c1)O[C@H](Cc1ccc(O)c(O)c1)C(=O)O [Rosmarinic acid]
[1]
  Antioxidant effect: ++
[2]
  Anti-inflammatory effect: ++
Human keratinocytes
  Wound-healing effect: ++
[3]
  Moisturizing effect: ++

## O=c1c(O)c(-c2ccc(O)c(O)c2)oc2cc(O)cc(O)c12 [Quercetin]
[1]
  Antioxidant effect: ++
[2]
  Anti-inflammatory effect: ++
Human keratinocytes
  Wound-healing effect: ++
[3]
  Moisturizing effect: ++

## O=C(O)/C=C/c1ccc(O)c(O)c1 [Caffeic acid]
[1]
  Antioxidant effect: +
[2]
  Anti-inflammatory effect: +
Human keratinocytes
  Wound-healing effect: +
[3]
  Moisturizing effect: +

## CCCCCCCC/C=C/CCCCCCCC(=O)O [Elaidic acid]
[1]
  Antioxidant effect: +
[2]
  Anti-inflammatory effect: +
Human keratinocytes
  Wound-healing effect: +
[3]
  Moisturizing effect: −

## CC1=C(/C=C/C(C)=C/C=C/C(C)=C/CO)C(C)(C)CCC1 [Retinol]
[1]
  Antioxidant effect: +
[2]
  Anti-inflammatory effect: +
Human keratinocytes
  Wound-healing effect: +
[3]
  Moisturizing effect: −

## CCc1ccc(C)c2ccc(C)c-2c1 [Chamazulene]
[1]
  Antioxidant effect: ++
[2]
  Anti-inflammatory effect: ++
Human keratinocytes
  Wound-healing effect: ++
[3]
  Moisturizing effect: ++

## COC1=C(OC)C(=O)C(C/C=C(\C)CC/C=C(\C)CC/C=C(\C)CC/C=C(\C)CC/C=C(\C)CC/C=C(\C)CC/C=C(\C)CC/C=C(\C)CC/C=C(\C)CCC=C(C)C)=C(C)C1=O [Coenzyme Q10]
[1]
  Antioxidant effect: +
[2]
  Anti-inflammatory effect: −
Human keratinocytes
  Wound-healing effect: +
[3]
  Moisturizing effect: +

## O=c1cc(-c2ccccc2)oc2cc(O)c(O)c(O)c12 [Baicalein]
[1]
  Antioxidant effect: ++
[2]
  Anti-inflammatory effect: ++
Human keratinocytes
  Wound-healing effect: ++
[3]
  Moisturizing effect: ++

## C[C@@H]1CC[C@@]2(OC1)O[C@H]1C[C@H]3[C@@H]4CC=C5C[C@@H](O)CC[C@]5(C)[C@H]4CC[C@]3(C)[C@H]1[C@@H]2C [Diosgenin]
[1]
  Antioxidant effect: −
[2]
  Anti-inflammatory effect: +
Human keratinocytes
  Wound-healing effect: ++
[3]
  Moisturizing effect: +

## Oc1cc(O)cc(/C=C/c2ccccc2)c1 [Pinosylvin]
[1]
  Antioxidant effect: +
[2]
  Anti-inflammatory effect: +
Human keratinocytes
  Wound-healing effect: ++
[3]
  Moisturizing effect: −

## Cc1cc(O)c2c(c1)C(=O)c1cc(O)cc(O)c1C2=O [Emodin]
[1]
  Antioxidant effect: ++
[2]
  Anti-inflammatory effect: ++
Human keratinocytes
  Wound-healing effect: ++
[3]
  Moisturizing effect: ++

## CC(C)=CCC/C(C)=C/CO [Geraniol]
[2]
  Anti-inflammatory effect: ++
Human keratinocytes
  Wound-healing effect: +
[3]
  Moisturizing effect: −

## C[C@H]1[C@H](C)CC[C@]2(C(=O)O)CC[C@]3(C)C(=CC[C@@H]4[C@@]5(C)C[C@@H](O)[C@H](O)[C@@](C)(CO)[C@@H]5[C@H](O)C[C@]43C)[C@H]12 [Madecassic acid]
[2]
  Anti-inflammatory effect: ++
Human keratinocytes
  Wound-healing effect: ++
[3]
  Moisturizing effect: ++

## C=CCc1ccc(O)c(-c2ccc(O)c(CC=C)c2)c1 [Honokiol]
[1]
  Antioxidant effect: +
[2]
  Anti-inflammatory effect: +
Human keratinocytes
  Wound-healing effect: ++
[3]
  Moisturizing effect: −

## C[C@@H]1O[C@@H](OC[C@H]2O[C@@H](Oc3c(-c4ccc(O)c(O)c4)oc4cc(O)cc(O)c4c3=O)[C@H](O)[C@@H](O)[C@@H]2O)[C@H](O)[C@H](O)[C@H]1O [Rutin]
[2]
  Anti-inflammatory effect: +
Human keratinocytes
  Wound-healing effect: +
[3]
  Moisturizing effect: +

## OCc1c[nH]c2ccccc12 [Indole-3-carbinol]
[1]
  Antioxidant effect: +
[2]
  Anti-inflammatory effect: +
Human keratinocytes
  Wound-healing effect: +
[3]
  Moisturizing effect: −

## CC(C)=CCC[C@](C)(O[C@@H]1O[C@H](CO[C@@H]2O[C@H](CO)[C@@H](O)[C@H](O)[C@H]2O)[C@@H](O)[C@H](O)[C@H]1O)[C@H]1CC[C@]2(C)[C@@H]1[C@H](O)C[C@@H]1[C@@]3(C)CC[C@H](O[C@@H]4O[C@H](CO)[C@@H](O)[C@H](O)[C@H]4O[C@@H]4O[C@H](CO)[C@@H](O)[C@H](O)[C@H]4O)C(C)(C)[C@@H]3CC[C@]12C [Ginsenoside Rb1]
[1]
  Antioxidant effect: −
[2]
  Anti-inflammatory effect: +
Human keratinocytes
  Wound-healing effect: +
[3]
  Moisturizing effect: +

## CC/C=C\C/C=C\C/C=C\CCCCCCCC(=O)O [Linolenic acid]
[2]
  Anti-inflammatory effect: ++
Human keratinocytes
  Wound-healing effect: ++
[3]
  Moisturizing effect: ++

## OCCc1ccc(O)c(O)c1 [Hydroxytyrosol]
[2]
  Anti-inflammatory effect: +
Human keratinocytes
  Wound-healing effect: +
[3]
  Moisturizing effect: +

## O=C(O)CCCCC1CCSS1 (stereo not drawn) [alpha-lipoic acid]
[1]
  Antioxidant effect: +
[2]
  Anti-inflammatory effect: +
Human keratinocytes
  Wound-healing effect: ++
[3]
  Moisturizing effect: −

## O=C(O)c1cc(O)c(O)c(O)c1 [Garlic acid]
[1]
  Antioxidant effect: +
[2]
  Anti-inflammatory effect: +
Human keratinocytes
  Wound-healing effect: +
[3]
  Moisturizing effect: −

## O=P(O)(O)O[C@H]1[C@H](OP(=O)(O)O)[C@@H](OP(=O)(O)O)[C@H](OP(=O)(O)O)[C@@H](OP(=O)(O)O)[C@H]1OP(=O)(O)O [Phytic acid]
[1]
  Antioxidant effect: +
[2]
  Anti-inflammatory effect: +
Human keratinocytes
  Wound-healing effect: ++
[3]
  Moisturizing effect: −

## C=CCc1ccc(O)c(-c2cc(CC=C)ccc2O)c1 [Magnolol]
[1]
  Antioxidant effect: +
[2]
  Anti-inflammatory effect: +
Human keratinocytes
  Wound-healing effect: +
[3]
  Moisturizing effect: −

## Cc1c(C)c2c(c(C)c1O)CC[C@@](C)(CCC[C@H](C)CCC[C@H](C)CCCC(C)C)O2 [alpha-Tocopherol]
[1]
  Antioxidant effect: +
[2]
  Anti-inflammatory effect: +
Human keratinocytes
  Wound-healing effect: ++

## CC1=C(O)C(=O)C(C)O1 (stereo not shown) [Furaneol]
[2]
  Anti-inflammatory effect: +
Human keratinocytes
  Wound-healing effect: +
[3]
  Moisturizing effect: +

## CC1(C)[C@@H](O[C@H]2O[C@H](C(=O)O)[C@@H](O)[C@H](O)[C@H]2O[C@@H]2O[C@H](C(=O)O)[C@@H](O)[C@H](O)[C@H]2O)CC[C@]2(C)[C@H]3C(=O)C=C4[C@@H]5C[C@@](C)(C(=O)O)CC[C@]5(C)CC[C@@]4(C)[C@]3(C)CC[C@@H]12 [Glycyrrhizin]
[1]
  Antioxidant effect: ++
[2]
  Anti-inflammatory effect: ++
Human keratinocytes
  Wound-healing effect: ++
[3]
  Moisturizing effect: ++

## O=C1O[C@H]([C@@H](O)CO)C(O)=C1O [Ascorbic acid]
[1]
  Antioxidant effect: +
[2]
  Anti-inflammatory effect: +
Human keratinocytes
  Wound-healing effect: ++
[3]
  Moisturizing effect: −

## CCCCCCCC/C=C\CCCCCCCC(=O)O [Oleic acid]
[1]
  Antioxidant effect: +
[2]
  Anti-inflammatory effect: +
Human keratinocytes
  Wound-healing effect: +
[3]
  Moisturizing effect: +

## O=c1ccc2ccccc2o1 [Coumarin]
[1]
  Antioxidant effect: +
[2]
  Anti-inflammatory effect: ++
Human keratinocytes
  Wound-healing effect: +
[3]
  Moisturizing effect: −

Reference: patent US7994141B2, “Compositions comprising compounds of natural origin for damaged skin” (Biospectrum, Inc., priority 2006, dated 2011)
